Experimental findings from patent publication US20240190855A1 (Relay Therapeutics, Inc., priority 2021, published 2024) are described below.

This test concerns the target T1, CDK2/Cyclin E complex (Homo sapiens, UniProt P24941).
T1 construct: purchased Eurofins 14-475
Put plainly: CDK2/Cyclin E fluorescence-based microfluidic mobility shift assay (CDK2 Biochemical Caliper Assay). As to conditions: read-out: Biochemical CDK2/CyclinE Caliper IC50. The procedure, abridged: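 Microfluidic mobility-shift readout after EDTA termination measured phosphorylation of fluorescent FL Peptide 18 (1.5 uM final) in a 20 hr room-temperature reaction. Compounds were tested at 11 concentrations (3-fold).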

Regarding `COCc1cc2c(Nc3cc([C@H]4C[C@@H](OC(=O)N[C@@H]5C[C@@H]5C)CO4)[nH]n3)nccn2n1` [Example 759], the IC50 is no more than 100 nM.

Consider `CC1(NC(=O)O[C@H]2CO[C@@H](c3cc(Nc4cc5nccnc5cn4)n[nH]3)C2)CC1` [Example 760], for which the IC50 lay in the range of 250 to 1000 nM.

Take `CC1(NC(=O)O[C@H]2CO[C@@H](c3cc(Nc4ncnc5ncccc45)n[nH]3)C2)CC1` [Example 761]: the IC50 was no more than 100 nM.

Take `CC1(NC(=O)O[C@H]2CO[C@@H](c3cc(Nc4ccc5nccnc5n4)n[nH]3)C2)CC1` [Example 762]: the IC50 lay within 100 to 250 nM.

Regarding `COCc1cc2c(Nc3cc([C@H]4C[C@@H](OC(=O)N[C@@H](C)C(F)F)CO4)[nH]n3)nccn2n1` [Example 763], the IC50 is no more than 100 nM.

Regarding `COCc1cc2c(Nc3cc([C@@H]4C[C@H](OC(=O)NC5(C(F)(F)F)CC5)CO4)[nH]n3)nccn2n1` [Example 764], the IC50 was no more than 100 nM.

Consider `COCc1cc2c(Nc3cc([C@@H]4C[C@H](OC(=O)N[C@H](C)C5CC5)CO4)[nH]n3)nccn2n1` [Example 765], for which the IC50 was no more than 100 nM.

For the compound `COCc1cc2c(Nc3cc([C@@H]4C[C@H](OC(=O)N[C@@H](C)C5CC5)CO4)[nH]n3)nccn2n1` [Example 766], the IC50 was no more than 100 nM.

As for `COCc1cc2c(Nc3cc([C@@H]4C[C@H](OC(=O)NC56CC(C5)C6)CO4)[nH]n3)nccn2n1` [Example 767], the IC50 is no more than 100 nM.

As to `COCc1cc2c(Nc3cc([C@H]4C[C@@H](Oc5[nH]ncc5C(C)(C)C)CO4)[nH]n3)nccn2n1` [Example 768], the IC50 was no more than 100 nM.

As to `CC1(NC(=O)O[C@H]2CO[C@@H](c3cc(Nc4nccn5nc(C(F)F)cc45)n[nH]3)C2)CC1` [Example 769], the IC50 was no more than 100 nM.

Regarding `Cn1nc(C(F)(F)F)cc1C(=O)Nc1cc([C@H]2C[C@@H](OC(=O)NC3(C)CC3)CO2)[nH]n1` [Example 770], the IC50 was no more than 100 nM.

As for `Cn1nc(COCC(F)(F)F)cc1C(=O)Nc1cc([C@H]2C[C@@H](OC(=O)NC3(C)CC3)CO2)[nH]n1` [Example 771], the IC50 is no more than 100 nM.

For the compound `C[C@H](NC(=O)O[C@H]1CO[C@@H](c2cc(NC(=O)c3cc(COC(F)F)nn3C)n[nH]2)C1)C1CC1` [Example 772], the IC50 was no more than 100 nM.

In the case of `Cn1nc(COC(F)(F)F)cc1C(=O)Nc1cc([C@@H]2C[C@H](OC(=O)NC3(C)CC3)CO2)[nH]n1` [Example 773], the IC50 is no more than 100 nM.

As to `CC(C)(C)n1cnnc1O[C@H]1CO[C@@H](c2cc(Nc3nccn4nccc34)n[nH]2)C1` [Example 774], the IC50 is no more than 100 nM.

For `COCc1cc2c(Nc3cc([C@H]4C[C@@H](OC(=O)N[C@H]5C[C@H]5C)CO4)[nH]n3)nccn2n1` [Example 775], the IC50 was no more than 100 nM.

`Cn1nc(COC(F)(F)F)cc1C(=O)Nc1cc([C@@H]2C[C@H](OC(=O)NC34CC(C3)C4)CO2)[nH]n1` [Example 776]: the IC50 is no more than 100 nM.

Turning to `C[C@H](NC(=O)O[C@@H]1CO[C@H](c2cc(NC(=O)c3cc(COC(F)(F)F)nn3C)n[nH]2)C1)C1CC1` [Example 780], the IC50 was no more than 100 nM.

Turning to `CC1(NC(=O)O[C@H]2CO[C@@H](c3cc(Nc4nccn5nccc45)n[nH]3)C2)CC1` [Example 781], the IC50 was no more than 100 nM.

On to `CC1(NC(=O)O[C@@H]2CO[C@H](c3cc(Nc4nccn5nccc45)n[nH]3)C2)CC1` [Example 782], for which the IC50 was no more than 100 nM.

As for `COCc1cc2c(Nc3cc([C@H]4C[C@@H](Oc5nn(C)cc5C(C)(C)C)CO4)[nH]n3)nccn2n1` [Example 783], the IC50 lay in the range of 1000 to 100000 nM.

Regarding `CC(C)n1cnnc1O[C@H]1CO[C@@H](c2cc(Nc3nccn4nccc34)n[nH]2)C1` [Example 784], the IC50 is no more than 100 nM.

In the case of `Cn1nc(CC(F)(F)F)cc1C(=O)Nc1cc([C@H]2C[C@@H](OC(=O)NC3(C)CC3)CO2)[nH]n1` [Example 785], the IC50 was no more than 100 nM.

For `Cn1nc(C(F)F)cc1C(=O)Nc1cc([C@H]2C[C@@H](OC(=O)NC3(C)CC3)CO2)[nH]n1` [Example 786], the IC50 is no more than 100 nM.

Take `Cn1nc(OC(F)(F)F)cc1C(=O)Nc1cc([C@H]2C[C@@H](OC(=O)NC3(C)CC3)CO2)[nH]n1` [Example 787]: the IC50 was no more than 100 nM.

For the compound `Cn1nc(COC(F)(F)F)cc1C(=O)Nc1cc([C@H]2C[C@@H](OC(=O)NC3(C#N)CC3)CO2)[nH]n1` [Example 788], the IC50 is no more than 100 nM.

Turning to `COCc1cc2c(Nc3cc([C@H]4C[C@@H](Oc5nn(C)cc5C(C)C)CO4)[nH]n3)nccn2n1` [Example 790], the IC50 was in the range of 1000 to 100000 nM.

Take `Cn1nc(CCOC(F)(F)F)cc1C(=O)Nc1cc([C@H]2C[C@@H](OC(=O)NC3(C)CC3)CO2)[nH]n1` [Example 791]: the IC50 was no more than 100 nM.

For the compound `Cc1cc2c(c(Nc3cc(C4CCCC4)[nH]n3)n1)C(=O)NC2=O` [Example 792], the IC50 was 1000 to 100000 nM.

Consider `c1cn2ncc(Nc3cc(C4CCCC4)[nH]n3)cc2n1` [Example 793], for which the IC50 was 1000 to 100000 nM.

Regarding `c1c(Nc2ncc3c(n2)C2CCC3C2)n[nH]c1C1CCCC1` (stereo not drawn) [Example 794], the IC50 fell in the range of 1000 to 100000 nM.

For `Cc1cc(C)n2ccnc(Nc3cc(C4CCCC4)[nH]n3)c12` [Example 795], the IC50 was in the range of 1000 to 100000 nM.

In the case of `CC1(C)NC(=O)c2ccc(Nc3cc(C4CCCC4)[nH]n3)nc21` [Example 796], the IC50 is no more than 100 nM.

As for `Cc1nc(Nc2cc(C3CCCC3)[nH]n2)cc2nncn12` [Example 797], the IC50 fell in the range of 1000 to 100000 nM.

Regarding `N#CCc1c[nH]c2nccc(Nc3cc(C4CCCC4)[nH]n3)c12` [Example 798], the IC50 is 1000 to 100000 nM.

For the compound `Cc1cncc(Cl)c1Nc1cc(C2CCCC2)[nH]n1` [Example 799], the IC50 is 1000 to 100000 nM.

Consider `COC(=O)c1cc(Nc2cc(C3CCCC3)[nH]n2)cnn1` [Example 800], for which the IC50 was in the range of 1000 to 100000 nM.

As for `Clc1cccc2nc(Nc3cc(C4CCCC4)[nH]n3)cnc12` [Example 801], the IC50 fell in the range of 1000 to 100000 nM.

Consider `Cc1cc(Nc2cc(C3CCCC3)[nH]n2)n2nc(C)cc2n1` [Example 802], for which the IC50 lay in the range of 1000 to 100000 nM.

Take `COC(=O)c1cnc(C)cc1Nc1cc(C2CCCC2)[nH]n1` [Example 803]: the IC50 was 1000 to 100000 nM.

Regarding `COc1cnc2c(Nc3cc(C4CCCC4)[nH]n3)nccc2c1` [Example 804], the IC50 was 1000 to 100000 nM.

With `Cc1csc2nc(Nc3cc(C4CCCC4)[nH]n3)ncc12` [Example 805], the IC50 lay in the range of 1000 to 100000 nM.

Take `Cc1cc(C)nc(Nc2cc(C3CCCC3)[nH]n2)n1` [Example 806]: the IC50 lay in the range of 1000 to 100000 nM.

On to `CCCc1cnnc(Nc2cc(C3CCCC3)[nH]n2)c1` [Example 807], for which the IC50 fell in the range of 1000 to 100000 nM.

With `CCCCOc1ccc(Nc2cc(C3CCCC3)[nH]n2)nc1` [Example 808], the IC50 fell in the range of 1000 to 100000 nM.

In the case of `CC1Cc2nc(Nc3cc(C4CCCC4)[nH]n3)ncc2C(C)O1` (stereo not drawn) [Example 809], the IC50 is 1000 to 100000 nM.

`COc1cc(Nc2cc(C3CCCC3)[nH]n2)nc2sccc12` [Example 810]: the IC50 lay in the range of 1000 to 100000 nM.

On to `COCCOc1ccnc(Nc2cc(C3CCCC3)[nH]n2)n1` [Example 811], for which the IC50 is 1000 to 100000 nM.

Consider `Cc1cc(Nc2cc(C3CCCC3)[nH]n2)c2c(F)cccc2n1` [Example 812], for which the IC50 lay in the range of 1000 to 100000 nM.

In the case of `Oc1ccc2ccnc(Nc3cc(C4CCCC4)[nH]n3)c2c1` [Example 813], the IC50 lay within 1000 to 100000 nM.

As to `CC(C)c1cc(Nc2cc(C3CCCC3)[nH]n2)n2ncnc2n1` [Example 817], the IC50 was 1000 to 100000 nM.

Take `Cc1cn2nccc2c(Nc2cc(C3CCCC3)[nH]n2)n1` [Example 822]: the IC50 lay within 250 to 1000 nM.

In the case of `Cc1[nH]nc2nccc(Nc3cc(C4CCCC4)[nH]n3)c12` [Example 827], the IC50 lay in the range of 1000 to 100000 nM.

For the compound `O=C1COc2ncnc(Nc3cc(C4CCCC4)[nH]n3)c2N1` [Example 831], the IC50 lay in the range of 1000 to 100000 nM.

Turning to `Cc1cn2nc(Nc3cc(C4CCCC4)[nH]n3)cc(C)c2n1` [Example 832], the IC50 was in the range of 1000 to 100000 nM.

In the case of `c1cc(Nc2cc(C3CCCC3)[nH]n2)n2ccnc2n1` [Example 837], the IC50 is 1000 to 100000 nM.

As to `Cc1nc(Nc2cc(C3CCCC3)[nH]n2)c2sccc2n1` [Example 839], the IC50 lay within 1000 to 100000 nM.

Take `OCCOc1cncc(Nc2cc(C3CCCC3)[nH]n2)n1` [Example 842]: the IC50 lay in the range of 100 to 250 nM.

With `O=c1ccc2nc(Nc3cc(C4CCCC4)[nH]n3)ccc2[nH]1` [Example 849], the IC50 lay within 1000 to 100000 nM.

In the case of `Clc1ccn2c(Nc3cc(C4CCCC4)[nH]n3)nnc2c1` [Example 850], the IC50 was 1000 to 100000 nM.

As for `Cc1nc(Nc2cc(C3CCCC3)[nH]n2)cc(-c2ccco2)n1` [Example 853], the IC50 fell in the range of 1000 to 100000 nM.

As for `Cc1cc(C(F)(F)F)c(Nc2cc(C3CCCC3)[nH]n2)nn1` [Example 855], the IC50 lay in the range of 1000 to 100000 nM.

In the case of `Cc1cnnc(Nc2cc(C3CCCC3)[nH]n2)c1C(=O)O` [Example 856], the IC50 lay in the range of 1000 to 100000 nM.

For the compound `CS(=O)(=O)N1CCC(Nc2cc(C3CCCC3)[nH]n2)CC1` [Example 857], the IC50 lay within 1000 to 100000 nM.

Turning to `Cc1cc2ccccc2c(Nc2cc(C3CCCC3)[nH]n2)n1` [Example 858], the IC50 was in the range of 1000 to 100000 nM.

Consider `Cc1cc2ncnc(Nc3cc(C4CCCC4)[nH]n3)c2[nH]1` [Example 859], for which the IC50 lay within 1000 to 100000 nM.

In the case of `Fc1cnc(Nc2cc(C3CCCC3)[nH]n2)c2ccccc12` [Example 860], the IC50 fell in the range of 1000 to 100000 nM.

As to `c1cc2c(Nc3cc(C4CCCC4)[nH]n3)ncnn2c1` [Example 861], the IC50 lay in the range of 1000 to 100000 nM.

Take `Cc1cnc(Nc2cc(C3CCCC3)[nH]n2)c(C)n1` [Example 862]: the IC50 lay in the range of 1000 to 100000 nM.

Turning to `Cc1c(F)c(Nc2cc(C3CCCC3)[nH]n2)nc2ccccc12` [Example 863], the IC50 lay within 1000 to 100000 nM.

`CC(C)c1nc(Nc2cc(C3CCCC3)[nH]n2)c2cc[nH]c2n1` [Example 864]: the IC50 is 250 to 1000 nM.

Consider `COc1cnc2ncnc(Nc3cc(C4CCCC4)[nH]n3)c2c1` [Example 865], for which the IC50 was 1000 to 100000 nM.

Take `Cc1c(Nc2cc(C3CCCC3)[nH]n2)nn2cnnc2c1C` [Example 866]: the IC50 fell in the range of 1000 to 100000 nM.

With `c1cc2c(nc1Nc1cc(C3CCCC3)[nH]n1)CCOC2` [Example 867], the IC50 lay within 1000 to 100000 nM.
